According to publication PMC5993284, “Peptide inhibitors of the anaphase promoting-complex that cause sensitivity to microtubule poison” (PLoS ONE, 2018):
Ends that are not written are not given here. * marks the point of attachment. Biotin = O=C1N[C@H]2[C@H](CS[C@H]2CCCCC(=O)*)N1

System: APC/C
Test: Biotinylated peptide pull-down of purified APC/C, Western blot
Format: binding, Saccharomyces cerevisiae
Conditions: 20 μM biotinylated peptide, purified yeast APC/C, 1 h at 4 °C, streptavidin/Avidin beads, n = 3
Method: For APC/C purification, the APC/C which contain Cdc16-TAP-tag was isolated from 2 mL arrested yeast lysate by 120 μL IgG sepharose 6 Fast Flow beads (GE Healthcare Life Sciences) and incubate for 2 h at 4 °C on a rotating wheel. Beads were collected washed with 5 mL of APC/C wash buffer (200 mM Hepes pH8.0, 150 mM NaCl, 10% glycerol). Beads were resuspended in 150 μL of APC/C wash buffer contain 17.6 units of AcTEV protease (Invitrogen, Carlsbad, CA) at 4°C for 3 h with pipetting every 20 minutes. The purified APC/C was collected in the flow-through.
For APC/C binding assays, 20 μM biotinylated peptides or 20 μM peptides only as a negative control were incubated with purified APC/C and 100 μL APC/C wash buffer which contains phosphatase inhibitors (200 mM Hepes pH 8.0, 150 mM NaCl, 10% glycerol, 10 mM NaF, 1 mM NaVO4, 5 mM Na-pyrophosphate, 10 mM 2-glycerol phosphate) for 1 h at 4 °C. The mixtures were applied to 120 μL streptavidin beads (Dynabeads MyOne Streptavidin T1, Invitrogen) for 30 min at 4 °C with gentle pipetting every 10 min. Beads were washed with 1 mL of PBST buffer (Phosphate buffer saline and 0.1% Tween 20) three times SDS-PAGE protein sample was added directly. For APC/C binding competition experiments, the biotinylated peptide and 10-fold excess non-biotinylated peptides were added to purified APC/C at same time.
Free D-biotin in 10% DMSO was used for the control binding assays. For pre-coating APC/C with biotin, a modified APC/C purification was performed. 2 mL yeast lysate was incubated with 120 μL IgG Sepharose beads and additional 20.4 μM free biotin or non-biotin solvent as a positive control was added and samples were incubated for 2 h at 4 °C on a rotating wheel. Purified pre-coated APC/C was then removed from the IgG Sepharose following the standard purification procedure. 20 μM biotinylated peptides or 20 μM peptides as a negative control were incubated with pre-coated APC/C and 100 μL APC/C wash buffer which contain phosphatase inhibitors for 1 h at 4 °C. In addition, 20 μM biotinylated peptide was added and incubated with pre-coated APC/C in a non-biotin containing solvent as positive control. Pre-coated APC/C binding procedures were same as above. For pre-coating streptavidin beads with biotin, streptavidin beads were washed in the presence of 10.2 nmol/mL D-biotin in PBST buffer or non-biotin solvent as a positive control before use. Pre-coated streptavidin beads were incubated with purified APC/C-peptide complexes with an extra […] biotin for 30 minutes with gentle pipetting every 10 min at 4 °C.
Proteins were separated in SDS-PAGE gels and then were transferred to PVDF membrane. Blocking was performed by incubating samples in 20 mL PBST with 5% milk at 4 °C. Rabbit anti-tap (Thermo, CAB1001) was used as primary antibodies at a 1:1000 dilution and incubated for 2 hours at RT. Anti-rabbit HRP (Jackson, USA) was then used as secondary antibody at 1:5000 dilution and incubate for 1 hr at RT. Chemiluminescence signals were detected using an ImageQuant LAS 4000 (GE Healthcare Bio-Sciences, USA). For cell cycle timing Western blots anti-MYC and anti-Actin antibodies were employed (ABCAM, UK).

In the case of “DQ36-mut1: DQ36-mut1 where all 5 RILQY residues were changed to alanine AAAAA (Biotin-DMNKAAAAAMPEPPKCSSLRQKSYIMKKRTHYSYQQ)”, the “binding to APC/C (in words)” value is reported as “maintained the ability to pull-down APC/C”.
